Reference: ChEMBL document CHEMBL1201862, “PubChem BioAssay data set” (2004)
Activity calls are given as the source filed them.

Legend:
[1] = target: T1, Apoptotic protease-activating factor 1 (Homo sapiens, UniProt O14727); assay type: functional
T1 sequence (O14727 whole entry): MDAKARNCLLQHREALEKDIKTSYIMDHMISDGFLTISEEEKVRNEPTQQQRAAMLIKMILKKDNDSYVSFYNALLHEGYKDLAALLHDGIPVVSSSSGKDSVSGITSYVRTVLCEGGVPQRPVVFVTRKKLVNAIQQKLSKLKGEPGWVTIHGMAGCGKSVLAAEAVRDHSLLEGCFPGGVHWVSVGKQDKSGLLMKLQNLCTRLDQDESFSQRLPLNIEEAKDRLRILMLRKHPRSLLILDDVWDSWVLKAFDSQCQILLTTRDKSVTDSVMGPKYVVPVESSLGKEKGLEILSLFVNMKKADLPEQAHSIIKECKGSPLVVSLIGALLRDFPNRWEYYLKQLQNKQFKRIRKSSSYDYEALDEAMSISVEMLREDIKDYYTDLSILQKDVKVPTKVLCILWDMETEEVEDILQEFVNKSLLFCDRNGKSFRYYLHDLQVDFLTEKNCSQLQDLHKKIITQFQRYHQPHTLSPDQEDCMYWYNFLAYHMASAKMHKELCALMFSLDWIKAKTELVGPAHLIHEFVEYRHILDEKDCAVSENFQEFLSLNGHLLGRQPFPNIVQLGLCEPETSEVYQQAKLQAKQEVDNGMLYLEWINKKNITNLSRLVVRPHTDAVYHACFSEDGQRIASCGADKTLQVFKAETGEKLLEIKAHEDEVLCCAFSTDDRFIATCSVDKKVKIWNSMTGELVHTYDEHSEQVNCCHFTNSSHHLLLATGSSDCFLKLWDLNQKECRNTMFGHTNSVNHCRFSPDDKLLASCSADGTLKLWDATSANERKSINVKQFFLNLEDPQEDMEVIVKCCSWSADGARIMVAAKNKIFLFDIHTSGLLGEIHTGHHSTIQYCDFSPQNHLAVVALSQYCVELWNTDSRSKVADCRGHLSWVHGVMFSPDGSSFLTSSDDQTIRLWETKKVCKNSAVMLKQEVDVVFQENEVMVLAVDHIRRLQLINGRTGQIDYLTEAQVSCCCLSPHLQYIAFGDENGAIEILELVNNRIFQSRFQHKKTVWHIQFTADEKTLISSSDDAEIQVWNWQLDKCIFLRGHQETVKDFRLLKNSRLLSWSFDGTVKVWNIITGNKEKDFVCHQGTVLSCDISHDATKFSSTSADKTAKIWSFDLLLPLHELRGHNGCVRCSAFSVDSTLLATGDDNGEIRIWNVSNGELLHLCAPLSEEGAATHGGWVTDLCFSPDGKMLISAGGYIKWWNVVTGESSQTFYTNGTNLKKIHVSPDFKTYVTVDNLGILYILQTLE

Protein RecA = target: T2, Protein RecA (Mycobacterium tuberculosis, UniProt P9WHJ3); test: Fluorescence Cell-Free Homogeneous Dose Retest to Identify Inhibitors of RecA-Intein Splicing Activity. [Related pubchem assays (depositor defined):AID2097, AID2223, AID489010, AID492950]; assay type: functional
T2 sequence (P9WHJ3 whole entry): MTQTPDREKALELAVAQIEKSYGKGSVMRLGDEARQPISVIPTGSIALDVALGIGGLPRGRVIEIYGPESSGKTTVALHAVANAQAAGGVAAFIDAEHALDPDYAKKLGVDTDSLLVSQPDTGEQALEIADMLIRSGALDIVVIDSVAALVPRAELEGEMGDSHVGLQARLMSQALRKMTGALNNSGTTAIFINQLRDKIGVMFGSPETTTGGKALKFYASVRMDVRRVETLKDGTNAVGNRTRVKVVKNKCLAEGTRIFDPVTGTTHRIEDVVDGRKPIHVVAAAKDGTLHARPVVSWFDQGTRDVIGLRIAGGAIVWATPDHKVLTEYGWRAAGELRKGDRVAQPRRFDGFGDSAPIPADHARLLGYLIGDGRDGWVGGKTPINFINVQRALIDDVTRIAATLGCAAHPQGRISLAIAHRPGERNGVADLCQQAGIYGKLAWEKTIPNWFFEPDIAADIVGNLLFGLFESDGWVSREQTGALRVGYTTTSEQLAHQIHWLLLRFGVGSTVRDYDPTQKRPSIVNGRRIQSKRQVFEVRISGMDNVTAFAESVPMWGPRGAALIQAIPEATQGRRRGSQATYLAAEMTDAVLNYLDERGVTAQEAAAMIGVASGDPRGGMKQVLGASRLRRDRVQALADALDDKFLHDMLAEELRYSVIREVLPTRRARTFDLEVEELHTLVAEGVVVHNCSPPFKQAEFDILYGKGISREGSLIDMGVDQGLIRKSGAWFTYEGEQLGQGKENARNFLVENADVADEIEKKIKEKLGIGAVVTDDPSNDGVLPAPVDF

[2] = target: T3, Replicative DNA helicase DnaB (Mycobacterium tuberculosis, UniProt P9WMR3); test: DnaB intein splicing inhibitors, dose response, biochemical, cell-free fluorescence (AID 449749); assay type: functional
T3 sequence (P9WMR3 whole entry): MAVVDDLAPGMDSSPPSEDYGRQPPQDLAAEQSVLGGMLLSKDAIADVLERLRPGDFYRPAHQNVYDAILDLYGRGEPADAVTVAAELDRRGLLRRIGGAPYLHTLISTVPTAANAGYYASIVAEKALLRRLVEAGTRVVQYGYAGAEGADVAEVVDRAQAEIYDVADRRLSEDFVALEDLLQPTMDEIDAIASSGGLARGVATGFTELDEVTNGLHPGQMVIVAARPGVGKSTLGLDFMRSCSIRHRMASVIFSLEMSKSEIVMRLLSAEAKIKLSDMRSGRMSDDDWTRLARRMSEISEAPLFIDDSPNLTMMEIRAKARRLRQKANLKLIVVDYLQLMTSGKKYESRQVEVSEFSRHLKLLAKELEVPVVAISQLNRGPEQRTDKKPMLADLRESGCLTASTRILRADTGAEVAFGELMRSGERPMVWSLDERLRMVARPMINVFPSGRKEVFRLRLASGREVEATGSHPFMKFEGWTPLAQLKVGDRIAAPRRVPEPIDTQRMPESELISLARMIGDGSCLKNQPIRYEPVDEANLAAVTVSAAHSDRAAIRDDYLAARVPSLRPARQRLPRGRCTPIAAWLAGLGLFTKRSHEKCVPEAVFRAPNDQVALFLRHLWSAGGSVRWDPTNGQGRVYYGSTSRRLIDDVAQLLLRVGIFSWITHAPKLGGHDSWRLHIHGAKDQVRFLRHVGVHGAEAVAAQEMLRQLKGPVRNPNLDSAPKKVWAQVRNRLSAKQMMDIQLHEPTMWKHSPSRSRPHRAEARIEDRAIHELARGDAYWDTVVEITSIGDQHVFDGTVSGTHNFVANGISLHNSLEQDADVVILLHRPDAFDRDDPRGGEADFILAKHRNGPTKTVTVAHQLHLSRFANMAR

[3] = viability loss in CEM21 cells – cell-based, CellTiter-Glo luminescence, cherry-picked, cytotoxicity control for viral fusion inhibitor project, dose response (AID 652042); assay type: functional;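 also: potency for signal decrease meaning cytotoxicity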
[4] = off-target signal loss in HeLa-CEM21 co-culture – HeLa F-luc CTL cells, cherry-picked, counter-screen for HIV-1 Env fusion inhibitor project, dose response (AID 652040); assay type: functional, cell-based;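 also: potency for signal decrease marking cytotoxic or nonspecific inhibition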
[5] = blockers of HIV-1 ZM109 envelope-driven cell-cell fusion – HeLa effector, CEM target cells, luciferase, cherry-pick, dose response (AID 652058); assay type: functional, cell-based;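 also: luciferase signal from HIV-1 Env mediated cell-cell fusion of effector and target cells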
[6] = blockers of HIV-1 envelope-mediated cell-cell fusion – cherry-pick, dose response (AID 652057); assay type: functional, cell-based
[7] = HIV-1 AD8 envelope cell-cell fusion blockers – cherry-pick, dose response (AID 652062); assay type: functional, cell-based;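 also: luciferase signal from cell-cell fusion driven by HIV-1 clade B AD8 Env; potency is for inhibitors of fusion seen as a drop in luminescence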
Fatty acid synthase [8] = target: T4, Fatty acid synthase (Homo sapiens, UniProt P49327); test: inhibition of human FAS-TE enzyme activity – biochemical, endpoint fluorescence intensity, uHTS hits, dose response (AID 624327); assay type: functional;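 also: fluorescence from hydrolysis of an O-methyl fluorescein acyl ester substrate by the enzyme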
T4 sequence (P49327 whole entry): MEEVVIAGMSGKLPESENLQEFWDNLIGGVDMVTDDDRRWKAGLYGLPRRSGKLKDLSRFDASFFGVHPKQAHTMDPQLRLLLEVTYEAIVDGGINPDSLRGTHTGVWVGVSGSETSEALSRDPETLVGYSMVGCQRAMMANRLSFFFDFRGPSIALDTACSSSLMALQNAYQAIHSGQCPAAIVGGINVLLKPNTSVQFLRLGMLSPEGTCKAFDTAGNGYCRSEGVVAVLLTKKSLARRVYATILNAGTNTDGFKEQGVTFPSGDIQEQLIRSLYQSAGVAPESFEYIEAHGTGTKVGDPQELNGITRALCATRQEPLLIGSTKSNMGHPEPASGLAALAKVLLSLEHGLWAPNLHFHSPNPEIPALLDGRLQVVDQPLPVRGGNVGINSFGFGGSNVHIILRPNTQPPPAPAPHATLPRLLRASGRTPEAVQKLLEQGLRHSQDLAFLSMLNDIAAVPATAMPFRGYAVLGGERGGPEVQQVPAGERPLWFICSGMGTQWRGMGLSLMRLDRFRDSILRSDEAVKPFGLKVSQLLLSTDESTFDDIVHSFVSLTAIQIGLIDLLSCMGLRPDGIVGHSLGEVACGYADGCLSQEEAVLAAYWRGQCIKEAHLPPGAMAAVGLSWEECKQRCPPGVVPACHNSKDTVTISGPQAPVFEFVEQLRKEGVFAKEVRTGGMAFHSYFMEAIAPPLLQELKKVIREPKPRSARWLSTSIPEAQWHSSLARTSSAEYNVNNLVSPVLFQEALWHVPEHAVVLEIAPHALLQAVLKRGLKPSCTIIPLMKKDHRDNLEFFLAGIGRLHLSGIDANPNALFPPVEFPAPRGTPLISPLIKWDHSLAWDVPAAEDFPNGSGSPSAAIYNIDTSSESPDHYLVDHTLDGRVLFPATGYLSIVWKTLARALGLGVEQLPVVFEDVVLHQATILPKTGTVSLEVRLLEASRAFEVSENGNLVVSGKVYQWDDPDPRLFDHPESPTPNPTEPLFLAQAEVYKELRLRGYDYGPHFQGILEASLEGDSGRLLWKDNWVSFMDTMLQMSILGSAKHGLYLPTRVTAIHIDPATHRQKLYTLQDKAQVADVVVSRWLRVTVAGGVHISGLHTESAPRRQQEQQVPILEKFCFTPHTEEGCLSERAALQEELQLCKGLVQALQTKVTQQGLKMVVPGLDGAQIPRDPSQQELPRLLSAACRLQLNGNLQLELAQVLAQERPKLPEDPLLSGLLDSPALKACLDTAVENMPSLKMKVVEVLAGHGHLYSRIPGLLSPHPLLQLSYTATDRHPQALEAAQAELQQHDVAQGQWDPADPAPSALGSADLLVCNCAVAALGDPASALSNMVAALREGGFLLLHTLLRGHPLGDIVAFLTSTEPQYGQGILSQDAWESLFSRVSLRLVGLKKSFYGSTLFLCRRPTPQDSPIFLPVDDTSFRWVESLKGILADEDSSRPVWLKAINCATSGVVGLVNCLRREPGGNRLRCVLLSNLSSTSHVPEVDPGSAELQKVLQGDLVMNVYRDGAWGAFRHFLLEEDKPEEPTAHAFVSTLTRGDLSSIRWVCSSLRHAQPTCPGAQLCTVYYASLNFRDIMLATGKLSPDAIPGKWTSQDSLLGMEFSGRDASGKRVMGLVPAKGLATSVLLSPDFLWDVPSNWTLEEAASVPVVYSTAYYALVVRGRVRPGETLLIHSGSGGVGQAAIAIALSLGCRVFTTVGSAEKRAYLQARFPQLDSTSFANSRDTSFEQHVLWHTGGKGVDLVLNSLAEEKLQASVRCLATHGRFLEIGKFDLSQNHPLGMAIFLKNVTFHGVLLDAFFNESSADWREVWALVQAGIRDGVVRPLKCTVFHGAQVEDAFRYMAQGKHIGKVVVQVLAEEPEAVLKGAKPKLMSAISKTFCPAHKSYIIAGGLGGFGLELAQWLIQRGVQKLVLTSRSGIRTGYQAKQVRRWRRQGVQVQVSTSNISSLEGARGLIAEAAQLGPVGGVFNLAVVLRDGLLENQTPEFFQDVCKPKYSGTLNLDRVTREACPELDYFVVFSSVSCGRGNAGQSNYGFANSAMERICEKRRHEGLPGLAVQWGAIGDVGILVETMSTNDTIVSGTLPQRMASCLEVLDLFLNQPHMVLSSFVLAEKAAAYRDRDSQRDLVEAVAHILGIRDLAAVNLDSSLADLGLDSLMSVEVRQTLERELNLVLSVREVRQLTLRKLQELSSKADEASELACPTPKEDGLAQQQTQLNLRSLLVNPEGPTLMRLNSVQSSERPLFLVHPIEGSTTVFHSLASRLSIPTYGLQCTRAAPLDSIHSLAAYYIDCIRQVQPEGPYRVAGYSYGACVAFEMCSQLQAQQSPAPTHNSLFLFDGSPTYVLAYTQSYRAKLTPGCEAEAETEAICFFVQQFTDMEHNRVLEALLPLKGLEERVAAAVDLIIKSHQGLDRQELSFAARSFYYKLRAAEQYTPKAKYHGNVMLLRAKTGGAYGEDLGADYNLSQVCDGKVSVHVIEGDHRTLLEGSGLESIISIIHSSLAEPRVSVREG

Fatty acid synthase [9] = target: T4, Fatty acid synthase; test: inhibition of human FAS-TE enzyme activity – biochemical, kinetic fluorescence intensity, dose response (AID 624326); assay type: functional;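 also: rate of fluorescence rise from hydrolysis of a fluorogenic O-methyl fluorescein ester substrate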
[10] = non-specific 3'UTR reporter inhibition in Clone20-Shn3RL – cell-based, Renilla luciferase, cherry-picked, counter-screen for Shn3 inhibitor project, dose response (AID 624133); assay type: functional
[11] = luciferase reporter signal suppression in cells – H4 neuroglioma cells, luminescence, dose response (AID 1990); assay type: functional, cell-based
[12] = reduction of Shn3 3'UTR-driven luciferase in osteoblasts – cell-based, Clone20 osteoblasts, firefly luciferase, cherry-picked, dose response (AID 624132); assay type: functional;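 also: firefly luciferase luminescence from reporter carrying the Shn3 3'UTR in osteoblasts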
[13] = alpha-synuclein stem-loop luciferase translation blockers – H4 neuroglioma cells, luminescence, confirmation (AID 1988); assay type: functional, cell-based
[14] = loss of viability in HepG2 cells – cell-based, CellTiter-Glo, cherry-picked, cytotoxicity control for Shn3 inhibitor project, dose response (AID 624134); assay type: functional
[15] = Luminescence Cell-Based Dose Response HTS to Identify Inhibitors of 5'UTR Stem-Loop Driven Prion Protein mRNA Translation in H4 Neuroglioblastoma Cells. [Related pubchem assays: 1827 (Project Summary), 1813 (Primary HTS)]; assay type: functional
[16] = Luminescence Cell-Based Dose Retest to Confirm Inhibitors of Cancer Stem Cells. [Related pubchem assays (depositor defined):AID2717, AID2721]; assay type: functional; settings: Homo sapiens
cells [17] = assay type: functional, cell-based
cells [18] = assay type: functional, cell-based; remark: listed apart in the source

SMILES | AC50 [4] | AC50 [5] | AC50 [6] | AC50 [7] | IC50 (Fatty acid synthase [8]) | IC50 (Fatty acid synthase [9]) | further results
CC(=O)N(C1=C(N)C(=O)c2ccccc2C1=O)c1ccccc1 |  |  |  |  |  |  | IC50 [1]: 10.4 µM (active); EC50 (Protein RecA): 2.18 µM (active); AC50 [2]: 3.46 µM (active)
COc1ccc(C(O)(CCC(C)C)C(CN2CCOCC2)c2ccccc2)cc1 (centres undefined) | 23.8 µM (active) | 23.3 µM (active) | 5.79 µM (active) | 40.3 µM (active) |  |  | AC50 [3]: 51.9 µM (active)
CCN1CCN(S(=O)(=O)c2ccc(Cl)c(C(=O)N(C)Cc3ccc(C(C)(C)C)cc3)c2)CC1 |  |  |  |  | 13.5 µM (active) | 17.3 µM (active) | 
C#CCN(C[C@H]1[C@H](OC(=O)NC2CCCC2)[C@H](OC(=O)NC2CCCC2)C[C@H]2C(=O)N(c3ccccc3)C(=O)[C@@H]12)S(=O)(=O)c1ccc(C)cc1 |  |  |  |  | 47.5 µM (inactive) | 23 µM (inactive) | 
C[C@H](CO)N1C[C@H](C)[C@@H](CN(C)C(=O)NC2CCCCC2)Oc2c(NC(=O)Nc3ccccc3)cccc2C1=O |  |  |  |  | 4.16 µM (active) | 3.04 µM (active) | 
O=C(/C=C/c1cc([N+](=O)[O-])ccc1OC(F)F)Nc1cccc2ccccc12 |  |  |  |  | 24.6 µM (inactive) | 61.9 µM (inactive) | 
Fc1ccc(C(OCCN2CCN(CCCc3ccccc3)CC2)c2ccc(F)cc2)cc1 | 13 µM (active) | 8.74 µM (active) | 8.27 µM (active) | 12.3 µM (active) |  |  | AC50 [3]: 14.5 µM (active); AC50 [10]: 8.11 µM (active); EC50 [11]: 9.61 µM (active); AC50 [12]: 6.17 µM (active); EC50 [13]: > 120 µM (not active); AC50 [14]: 38.8 µM (active); EC50 [15]: > 120 µM (not active); AC50 [16]: 3.05 µM (active)
CC(C)(C)CN1CCNC(=O)C1CC(=O)NCCc1ccccc1F (centres undefined) |  |  |  |  |  |  | EC50 (cells [17]): > 29.9 µM (inactive); IC50 (cells [18]): > 29.9 µM (inactive)
Cc1ccc(S(=O)(=O)N2CCC(=O)N(CCOC(=O)Nc3cccc(Cl)c3)CC2)cc1 | 4.11 µM (active) | 4.6 µM (active) | 3.12 µM (active) | 7.72 µM (active) |  |  | 
